In brackets after ≈: the same amount, converted by molar mass.
Tests used:
[1] = Diabetogenic activity (blood glucose concentration after intravenous administration); format: in vivo, male Wister rats
Description: 40-96 mg/kg of the test compounds were administered intravenously to starved male Wister rats weighing 240-260 g each, and the blood glucose concentrations of the test animals were estimated by the glucose exidase method [L. L. Saloman et al: Anal. Chem., 31 (1959), 453], in which test the compounds were dissolved in physiological saline solution just before administration. […]

[2] = known compounds, generally seen; cited from earlier work
Acute toxicity (LD50) = format: in vivo, male Wister rats; conditions: rat, in vivo, after 1 week
Description: Test compounds were dissolved in physiological saline solution just before their dosage and administered to male Wister rats, intraperitoneally, intravenously and orally. After 1 week, the LD50 of each compound was calculated from the mortality of the test animals by the Lichfield-Wilcoxon Method.
i.v.: intravenous administration

leukemia L-1210 = assay: Antitumor activity against leukemia L-1210 implanted in BDF1 mice (ILS, 60 days survivors); format: in vivo
Description: Test compounds were given to BDF1 mice 24 hrs after implantation of 10^6 cells of leukemia L-1210 in each animal, through single intraperitoneal administration, intraperitoneal administration for 5 successive days, single oral administration or oral administration for 5 successive days, whereupon the increase in life span (referred to as "ILS") and number of 60 days survivors of test animals were estimated, said test of antitumor activity being that according to the method of the National Cancer Center, Tokyo [A. Hoshi et al: Farmashia, 9 (1973), 464]. In the tests, the compounds were dissolved in physiological saline solution just before administration.
^a i.p.: intraperitoneal administration p.o: oral administration
D1 : single administration D1~5 : administration for 5
^b percentage calculated from mean survival time over control
^c survivors/six animals

[3] = Effect on respiration, blood pressure, heart rate and electrocardiogram; format: in vivo, Beagle dogs; conditions: dog, in vivo, iv; injected into brachial veins, anesthetized Beagle dogs; read-out: maximum dosage not effected on respiration, blood pressure, heart rate and electrocardiogram
Description: Beagle dogs of both sexes weighing about 10 kg were anesthetized with pentobarbital sodium (30 mg/kg, i.v.), and immobilized in the supine position. Test compounds dissolved in physiological saline solution were injected into the brachial veins of the animals and the arteries at cannulated positions were treated with heparin sodium as anticoagulant.
The respiration rate of each animal was estimated with a respirometer (Nihonkohden, RP-3) through a tracheal cannula, the blood pressure with an electro-haemodynamometer (Nihonkohden, MP-4T) attached surgically to the femoral artery, and the heart rate with a pulse-rate tachometer (Nihonkohden, RT-2) through the trigger pulse of the blood pressure.

[4] = Solubility in water at 25° C.; format: physicochemical; conditions: amount soluble in 1 ml water at 25° C.
[5] = 40 mg/kg i.v., 0 hr after treatment
[6] = 40 mg/kg i.v., 2 hr after treatment
[7] = 40 mg/kg i.v., 4 hr after treatment
[8] = 40 mg/kg i.v., 7 hr after treatment
[9] = 40 mg/kg i.v., 10 hr after treatment
[10] = 40 mg/kg i.v., 24 hr after treatment
[11] = 40 mg/kg i.v., 48 hr after treatment
[12] = 60 mg/kg i.v., 0 hr after treatment
[13] = 60 mg/kg i.v., 2 hr after treatment
[14] = 60 mg/kg i.v., 4 hr after treatment
[15] = 60 mg/kg i.v., 7 hr after treatment
[16] = 60 mg/kg i.v., 10 hr after treatment
[17] = 60 mg/kg i.v., 24 hr after treatment
[18] = 60 mg/kg i.v., 48 hr after treatment

Structure (SMILES): O=NN(CCCl)C(=O)N[C@H]1C(O)O[C@H](CO)[C@@H](O)[C@@H]1O (stereo partly drawn) [DCNU, 1-(2-chloroethyl)-3-(D-glucopyranos-2-yl)-1-nitrosourea]
- Blood Glucose Concentration [1, 5]: 67.5 mg/dL
- Blood Glucose Concentration [1, 6]: 87.2 mg/dL
- Blood Glucose Concentration [1, 7]: 74.6 mg/dL
- Blood Glucose Concentration [1, 8]: 85.3 mg/dL
- Blood Glucose Concentration [1, 9]: 110.2 mg/dL
- Blood Glucose Concentration [1, 10]: 142.2 mg/dL
- Blood Glucose Concentration [1, 11]: 229.4 mg/dL
- Blood Glucose Concentration [1, 12]: 68.2 mg/dL
- Blood Glucose Concentration [1, 13]: 88.4 mg/dL
- Blood Glucose Concentration [1, 14]: 72.4 mg/dL
- Blood Glucose Concentration [1, 15]: 92.1 mg/dL
- Blood Glucose Concentration [1, 16]: 115.7 mg/dL
- Blood Glucose Concentration [1, 17]: 162.6 mg/dL
- Blood Glucose Concentration [1, 18]: 242.3 mg/dL
- Blood Glucose Concentration ([1]; 80 mg/kg i.v., 0 hr after treatment): 70.5 mg/dL
- Blood Glucose Concentration ([1]; 80 mg/kg i.v., 2 hr after treatment): 90.3 mg/dL
- Blood Glucose Concentration ([1]; 80 mg/kg i.v., 4 hr after treatment): 68.6 mg/dL
- Blood Glucose Concentration ([1]; 80 mg/kg i.v., 7 hr after treatment): 93.7 mg/dL
- Blood Glucose Concentration ([1]; 80 mg/kg i.v., 10 hr after treatment): 123.5 mg/dL
- Blood Glucose Concentration ([1]; 80 mg/kg i.v., 24 hr after treatment): 178.7 mg/dL
- Blood Glucose Concentration ([1]; 80 mg/kg i.v., 48 hr after treatment): 264.8 mg/dL
- diabetogenic activity, decreasing order [2]: SZ>DCNU>GANU> 2MCαG≈6MCαG
- LD50 at 168 h (Acute toxicity (LD50); ip): 44 mg/kg
- LD50 at 168 h (Acute toxicity (LD50); po): 1150 mg/kg
- ILS (leukemia L-1210; 1.6 mg/kg/day, i.p. D1~5): > 143%
- Survivors (60 days) (leukemia L-1210; 1.6 mg/kg/day, i.p. D1~5): 1/6
- ILS (leukemia L-1210; 1.6 mg/kg/day, p.o. D1~5): -10%
- ILS (leukemia L-1210; 3.2 mg/kg/day, i.p. D1~5): > 407%
- Survivors (60 days) (leukemia L-1210; 3.2 mg/kg/day, i.p. D1~5): 3/6
- ILS (leukemia L-1210; 3.2 mg/kg/day, p.o. D1~5): 6%
- ILS (leukemia L-1210; 4.5 mg/kg/day, i.p. D1~5): > 406%
- Survivors (60 days) (leukemia L-1210; 4.5 mg/kg/day, i.p. D1~5): 3/6
- ILS (leukemia L-1210; 6.3 mg/kg/day, i.p. D1): > 265%
- Survivors (60 days) (leukemia L-1210; 6.3 mg/kg/day, i.p. D1): 3/6
- ILS (leukemia L-1210; 6.3 mg/kg/day, i.p. D1~5): > 622%
- Survivors (60 days) (leukemia L-1210; 6.3 mg/kg/day, i.p. D1~5): 5/6
- ILS (leukemia L-1210; 6.3 mg/kg/day, p.o. D1~5): 13%
- ILS (leukemia L-1210; 9.0 mg/kg/day, i.p. D1~5): > 153%
- Survivors (60 days) (leukemia L-1210; 9.0 mg/kg/day, i.p. D1~5): 1/6
- ILS (leukemia L-1210; 12.5 mg/kg/day, i.p. D1): > 418%
- Survivors (60 days) (leukemia L-1210; 12.5 mg/kg/day, i.p. D1): 4/6
- ILS (leukemia L-1210; 12.5 mg/kg/day, p.o. D1~5): 13%
- ILS (leukemia L-1210; 25.0 mg/kg/day, i.p. D1): > 315%
- Survivors (60 days) (leukemia L-1210; 25.0 mg/kg/day, i.p. D1): 3/6
- ILS (leukemia L-1210; 25.0 mg/kg/day, p.o. D1~5): 13%
- ILS (leukemia L-1210; 50.0 mg/kg/day, i.p. D1): -10%
- ILS (leukemia L-1210; 50.0 mg/kg/day, p.o. D1~5): 15%
- ILS (leukemia L-1210; 100.0 mg/kg/day, p.o. D1~5): 18%
- ILS (leukemia L-1210; 200.0 mg/kg/day, p.o. D1~5): -23%
- antitumor activity in oral administration, in words (leukemia L-1210; oral administration): no antitumor activity in oral administration
- NOAEL [3]: 20 mg/kg
- solubility [4]: 40 mg/mL (≈ 128 mM)

Structure (SMILES): O=NN(CCCl)C(=O)N[C@@H]1O[C@H](CO)[C@@H](O)[C@H](O)[C@H]1O [GANU, 1-(2-chloroethyl)-3-(β-D-glucopyranosyl)-1-nitrosourea]
- Blood Glucose Concentration [1, 5]: 67.8 mg/dL
- Blood Glucose Concentration [1, 6]: 70.4 mg/dL
- Blood Glucose Concentration [1, 7]: 71.3 mg/dL
- Blood Glucose Concentration [1, 8]: 94.4 mg/dL
- Blood Glucose Concentration [1, 9]: 98.2 mg/dL
- Blood Glucose Concentration [1, 10]: 120.3 mg/dL
- Blood Glucose Concentration [1, 11]: 186.5 mg/dL
- Blood Glucose Concentration [1, 12]: 67.3 mg/dL
- Blood Glucose Concentration [1, 13]: 71.2 mg/dL
- Blood Glucose Concentration [1, 14]: 72.6 mg/dL
- Blood Glucose Concentration [1, 15]: 95.4 mg/dL
- Blood Glucose Concentration [1, 16]: 105.9 mg/dL
- Blood Glucose Concentration [1, 17]: 125.5 mg/dL
- Blood Glucose Concentration [1, 18]: 189.8 mg/dL
- diabetogenic activity, decreasing order [2]: SZ>DCNU>GANU> 2MCαG≈6MCαG
- LD50 at 168 h (Acute toxicity (LD50); ip): 24 mg/kg
- LD50 at 168 h (Acute toxicity (LD50); iv): 10 mg/kg
- LD50 at 168 h (Acute toxicity (LD50); po): 21 mg/kg
- ILS (leukemia L-1210; 1.0 mg/kg/day, i.p. D1): 42%
- ILS (leukemia L-1210; 5.0 mg/kg/day, i.p. D1): > 280%
- Survivors (60 days) (leukemia L-1210; 5.0 mg/kg/day, i.p. D1): 2/6
- ILS (leukemia L-1210; 5.0 mg/kg/day, p.o. D1): 5%
- ILS (leukemia L-1210; 10.0 mg/kg/day, i.p. D1): > 295%
- Survivors (60 days) (leukemia L-1210; 10.0 mg/kg/day, i.p. D1): 2/6
- ILS (leukemia L-1210; 10.0 mg/kg/day, p.o. D1): 45%
- ILS (leukemia L-1210; 15.0 mg/kg/day, i.p. D1): > 507%
- Survivors (60 days) (leukemia L-1210; 15.0 mg/kg/day, i.p. D1): 5/6
- ILS (leukemia L-1210; 20.0 mg/kg/day, i.p. D1): > 518%
- Survivors (60 days) (leukemia L-1210; 20.0 mg/kg/day, i.p. D1): 5/6
- ILS (leukemia L-1210; 20.0 mg/kg/day, p.o. D1): 75%
- ILS (leukemia L-1210; 25.0 mg/kg/day, i.p. D1): > 472%
- Survivors (60 days) (leukemia L-1210; 25.0 mg/kg/day, i.p. D1): 5/6
- ILS (leukemia L-1210; 25.0 mg/kg/day, p.o. D1): 110%
- ILS (leukemia L-1210; 35.0 mg/kg/day, p.o. D1): 70%
- NOAEL [3]: 10 mg/kg

Reference: patent US4156777A, “Process for producing glucopyranose-nitrosourea compounds and novel compounds included therein” (Tokyo Tanabe Company, Limited, priority 1977, dated 1979)
